The results in this text go back to patent US9000028B2, “Indole and indazole compounds as an inhibitor of cellular necrosis” (LG Life Sciences Ltd., priority 2007, dated 2015).

One test deals with primary hepatocytes isolated from rats. Description: Hepatocyte protective effect against substances deriving hepatocyte toxicity (WST-1 viability). Format: cell-based. To be noted: Rattus norvegicus, Hepatocyte, doxorubicin, 24-48 h, read-out: EC50, cell protective effects against doxorubicin in hepatocytes. As for the experimental part:
Various endogenous/exogenous attacks on the cells trigger the mechanisms of cell death which is broadly classified into two types, i.e. apoptosis or necrosis. Using these cell death mechanisms, in the present experimental example, primary hepatocytes isolated from rats were treated with drugs which were clinically shown to result in serious side-effects of hepatocyte toxicity or various chemicals which derive cell death, and the compounds synthesized in the Examples were estimated for their hepatocyte protective effects, after 24-48 h. The substances used to derive hepatocyte death include CCl4, ActD, H2O2, doxorubicin, anti-Fas Ab/Actinomycin D, acetaminophen, EtOH, CdCl2, palmitate, stearate, cyclophosphamide, terfenadine, diclofenac, simvastatin, and adefovir. Primary hepatocytes were isolated using the method of Seglen PO (Experimental Cell Research 74 (1972) pp 450-454). Briefly, hepatocytes were isolated according to the two-step collagenase perfusion method, and dead cells were removed by low speed (500 rpm) centrifugation for 10 min using percoll gradient (Kreamer B L etc, In Vitro Cellular & Developmental Biology 22 (1986) pp 201-211). During this step, the viability of cells was maintained 90% or above. The cells were suspended in HepatoZYME media (Gibco BRL), and the number of cells was counted. 1.5×10^4 cells in 100 μl were placed into the collagen-coated 96-well plate (BD biocoat), and adhered on the bottom for 3-4 h.
In order to assess the hepatocyte protective effect, above adhered cells were pretreated with the Example compounds for 30 min. At this time, the concentration of the Example compounds were serially diluted by 2-fold or 3-fold over 5 steps starting from 30 uM, 10 uM or 1 uM depending on the experiments, and the final concentration of DMSO was adjusted to 0.2%. 30 min after the treatment by compounds, cells were treated by the substances deriving hepatocyte death or hepatotoxic drugs at the concentrations indicated in Table 1. After 24-48 h, the viability of cells was determined to estimate the hepatocyte protective effects. The viability of cells was determined using WST-1 (MK-400, […]) method by the absorbance at 440 nm. Hepatocyte protective effects of the Example compounds were represented by “EC50,” which was calculated from measured values. “EC50” herein means the concentration of the compound at which 50% of maximum protective effect is observed in the experiment.
Usually EC50 stands for the concentration giving half of the maximal effect. Regarding `COC(=O)c1cccc(-c2cc3cc(Cl)cc(NC4CCCC4)c3[nH]2)c1` [Example 123, 3-(7-Cyclopentylamino-5-chloro-1H-indol-2-yl)-benzoic acid methyl ester], the 50% effective concentration (EC50) was determined as 190 nM. `O=S1(=O)CCN(CCc2cccc(-c3cc4cc(Cl)cc(NC5CCOCC5)c4[nH]3)c2)CC1` [Example 152, {5-Chloro-2-[3-(1,1-dioxo-thiomorpholin-4-yl)ethylphenyl]-1H-indol-7-yl}-(tetrahydropyran-4-yl)-amine]: the EC50 is 240 nM.

For `Cc1cc(NC2CCOCC2)c2[nH]ncc2c1` [Example 156, (5-Methyl-1H-indazol-7-yl)-(tetrahydropyran-4-yl)-amine], the EC50 is greater than 10000 nM. In the case of `CN1CCC(Nc2ccc(-c3cc4cc(Cl)cc(NC5CCCC5)c4[nH]3)cc2)CC1` [Example 83, Cyclopentyl-{5-chloro-2-[4-(1-methyl-piperidin-4-yl)aminophenyl]-1H-indol-7-yl}-amine], the half-maximal effective concentration (EC50) was determined as 50 nM. Still for that read-out and setting: under `O=C1CN(Cc2c(-c3ccccc3)[nH]c3c(NC4CCOCC4)cc(Cl)cc23)CCN1` [Example 69, (Tetrahydropyran-4-yl)-(5-chloro-3-(2-oxo-piperazin-4-yl)methyl-2-phenyl-1H-indol-7-yl)-amine] stands 355 nM.

Consider `Cc1cc(NC2CCN(Cc3ccccc3)C2)c2[nH]c(-c3ccccn3)cc2c1` (stereo not drawn) [Example 14, (1-Benzylpyrrolidin-3-yl)[5-methyl-2-(pyridin-2-yl)-1H-indol-7-yl]-amine], for which the EC50 amounted to 300 nM. As for `OCc1cccc(-c2cc3cc(Cl)cc(NC4CCOCC4)c3[nH]2)c1` [Example 126, {3-[5-Chloro-7-(tetrahydropyran-4-yl)amino-1H-indol-2-yl]-phenyl}-methanol], the EC50 was 200 nM. As to `CC(=O)N1CCN(Cc2cccc(-c3cc4cc(Cl)cc(NC5CCOCC5)c4[nH]3)c2)CC1` [Example 150, 1-{4-[3-(5-Chloro-7-tetrahydropyran-4-ylamino-1H-indol-2-yl)-benzyl]-piperazin-1-yl}-ethanone], the concentration for a half-maximal effect (EC50) was determined as 160 nM. On to `CN(C)C1CCC(Nc2cc(Cl)cc3cc(-c4ccccc4)[nH]c23)CC1` (stereo not drawn) [Example 100, N-(5-chloro-2-phenyl-1H-indol-7-yl)-N′,N′-dimethyl-cyclohexane-1,4-diamine], for which the EC50 came out at 80 nM. `Cc1cc(NC2CCN(C)CC2)c2[nH]c(-c3ccccc3)cc2c1` [Example 44, (1-Methylpiperidin-4-yl)-(5-methyl-2-phenyl-1H-indol-7-yl)-amine]: the half-maximal effective concentration (EC50) was 170 nM. Take `O=C(O)CNc1cc(Oc2ccccc2)cc2cc(-c3ccccc3)[nH]c12` [Example 109, 2-[(5-Phenoxy-2-phenyl-1H-indol-7-yl)amino]-acetic acid]: the EC50 came to 257 nM.

With `O=C(O)[C@@H]1CCCN1C(=O)c1cc(NC2CCOCC2)c2[nH]c(-c3ccccc3)cc2c1` [Example 118, (2S)-1-[2-phenyl-7-(tetrahydropyran-4-yl)amino-1H-indole-5-carbonyl]-pyrrolidine-2-carboxylic acid], the 50% effective concentration (EC50) worked out at 1100 nM. Regarding `O=C(O)c1ccc(-c2cc3cc(Cl)cc(NC4CCCC4)c3[nH]2)cc1` [Example 138, 4-(5-Chloro-7-cyclopentylamino-1H-indol-2-yl)-benzoic acid], the EC50 worked out at 100 nM. Still for that read-out and setting: the value for `CCN(CC)CCn1c(-c2ccccc2)cc2cc(Cl)cc(NC3CCOCC3)c21` [Example 64, (Tetrahydropyran-4-yl)-[5-chloro-1-(2-diethylaminoethyl)-2-phenyl-1H-indol-7-yl]amine] was 260 nM; that for `CC(=O)Nc1ccc(-c2cc3cc(N4CCS(=O)(=O)CC4)cc(NCC4CCOCC4)c3[nH]2)cc1` [Example 87, (Tetrahydropyran-4-yl)methyl-{5-(1,1-dioxo-thiomorpholin-4-yl)-2-[4-(acetyl)aminophenyl]-1H-indol-7-yl}-amine] was 600 nM; that for `Clc1cc(NC2CCNCC2)c2[nH]c(-c3ccccc3)cc2c1` [Example 93, (5-Chloro-2-phenyl-1H-indol-7-yl)-piperidin-4-yl-amine] was 160 nM. Regarding `c1ccc(Oc2cc(NC3CCCC3)c3[nH]c(-c4ccccn4)cc3c2)cc1` [Example 9, Cyclopentyl-[5-phenoxy-2-(pyridin-2-yl)-1H-indol-7-yl]-amine], the EC50 turned out to be 200 nM. As to `CC(C)(C)OC(=O)Nc1ccc(-c2cc3cc(Cl)cc(NC4CCCC4)c3[nH]2)cc1` [Example 78, t-Butyl N-[4-[5-chloro-7-(cyclopentylamino)-1H-indol-2-yl]phenyl]carbamate], the 50% effective concentration (EC50) was 210 nM.

`Cc1cc(NCC2CCCC2)c2[nH]c(-c3ccccc3)cc2c1` [Example 42, Cyclopentylmethyl-(5-methyl-2-phenyl-1H-indol-7-yl)-amine]: the half-maximal effective concentration (EC50) came to 40 nM.

In the case of `Cc1cc(NC2CCCC2)c2[nH]c(-c3ccccc3)c(C)c2c1` [Example 40, Cyclopentyl-[3,5-dimethyl-2-phenyl-1H-indol-7-yl]-amine], the 50% effective concentration (EC50) came to 200 nM. `CC(Nc1cc(Oc2ccccc2)cc2cc(-c3ccccc3)[nH]c12)C(=O)O` (stereo not drawn) [Example 111, 2-(5-Phenoxy-2-phenyl-1H-indol-7-yl)amino-propionic acid]: the half-maximal effective concentration (EC50) worked out at 257 nM.

For `CC(=O)Nc1ccc(-c2cc3cc(CN4CCS(=O)(=O)CC4)cc(NC4CCCC4)c3[nH]2)cc1` [Example 85, Cyclopentyl-{5-(1,1-dioxo-thiomorpholin-4-yl)methyl-2-[4-(acetyl)aminophenyl]-1H-indol-7-yl}-amine], the half-maximal effective concentration (EC50) stood at 360 nM.

Turning to `O=S1(=O)CCN(Cc2cc(N(C3CCOCC3)C3CCOCC3)c3[nH]c(-c4ccccc4)cc3c2)CC1` [Example 58, Di(tetrahydropyran-4-yl)-[2-phenyl-5-(1,1-dioxo-thiomorpholin-4-yl)methyl-1H-indol-7-yl]amine], the EC50 was determined as 260 nM. For the compound `Clc1cc(NCC2CCOCC2)c2[nH]c(-c3ccccc3)cc2c1` [Example 50, (Tetrahydropyran-4-ylmethyl)-(5-chloro-2-phenyl-1H-indol-7-yl)-amine], the half-maximal effective concentration (EC50) turned out to be 43 nM.

`O=S1(=O)CCN(Cc2cc(NCC3CCNCC3)c3[nH]c(-c4ccccc4)cc3c2)CC1` [Example 96, [5-(1,1-Dioxo-thiomorpholin-4-yl)methyl-2-phenyl-1H-indol-7-yl]-(piperidin-4-yl)methyl-amine]: the EC50 turned out to be 120 nM. For `OCCc1cc(NC2CCCC2)c2[nH]c(-c3ccccc3)cc2c1` [Example 32, 2-[7-(Cyclopentylamino)-2-phenyl-1H-indol-5-yl]ethanol], the EC50 was found to be 130 nM.

`COC(=O)c1ccc(-c2cc3cc(C)cc(NC4CCCC4)c3[nH]2)cc1` [Example 143, 4-(7-Cyclopentylamino-5-methyl-1H-indol-2-yl)benzoic acid methyl ester]: the concentration giving a half-maximal response (EC50) is 66 nM. With `CCOC(=O)Cc1cc(NC2CCCC2)c2[nH]c(-c3ccccc3)cc2c1` [Example 31, 2-[7-(Cyclopentyl)amino-2-phenyl-1H-indol-5-yl]-acetic acid ethyl ester], the EC50 is 160 nM. Still for that read-out and setting: the value for `COC(=O)Cc1ccc(-c2cc3cc(Cl)cc(NC4CCOCC4)c3[nH]2)cc1` [Example 146, 2-{4-[5-Chloro-7-(tetrahydropyran-4-yl)amino-1H-indol-2-yl]phenyl}-acetic acid methyl ester] was 330 nM.

In the case of `Cc1cc(NC2CCN(C(=O)CO)CC2)c2[nH]c(-c3ccccc3)cc2c1` [Example 92, 2-Hydroxy-1-[4-(5-methyl-2-phenyl-1H-indol-7-yl)amino-piperidin-1-yl]-ethanone], the concentration for a half-maximal effect (EC50) turned out to be 36 nM. As to `Clc1cc(NC2CCOCC2)c2[nH]cc(-c3ccccc3)c2c1` [Example 79, (Tetrahydropyran-4-yl)-(5-chloro-3-phenyl-1H-indol-7-yl)-amine], the concentration for a half-maximal effect (EC50) came out at 140 nM. As for `Cc1cc(NC2CCNCC2)c2[nH]c(-c3ccccc3)cc2c1` [Example 90, (5-Methyl-2-phenyl-1H-indol-7-yl)-piperidin-4-yl-amine], the concentration giving a half-maximal response (EC50) stood at 146 nM. For the compound `Clc1cc(NC2CCOCC2)c2[nH]c(-c3ccccc3)c(CN3CCOCC3)c2c1` [Example 68, (Tetrahydropyran-4-yl)-(5-chloro-3-(morpholin-4-yl)methyl-2-phenyl-1H-indol-7-yl)-amine], the EC50 was 320 nM. Consider `Nc1ccc(-c2cc3cc(Cl)cc(NC4CCCC4)c3[nH]2)cc1` [Example 82, Cyclopentyl-[2-(4-aminophenyl)-5-chloro-1H-indol-7-yl]-amine], for which the EC50 amounted to 70 nM.

Still in this test, the particulars now being: doxorubicin; rat primary hepatocytes; 24-48 h; read-out: EC50, cell protective effects against doxorubicin in hepatocytes.
In the case of `CN1CCC(CNc2cc(F)cc3cc(-c4ccccc4)[nH]c23)CC1` [Example 59, (1-Methyl-piperidinemethyl-4-yl)-[5-fluoro-2-phenyl-1H-indol-7-yl]amine], the EC50 came to 200 nM. On to `COc1ccc(-c2n[nH]c3c(NC4CCOCC4)cccc23)cc1` [Example 158], for which the EC50 came out at 2770 nM.
